Measured values reported in the supplement of paper PMC10307832.

compound: CCn1c(-c2nonc2N)nc2c(C#CC(C)(C)O)ncc(OC[C@H]3CCCNC3)c21 + COc1cccc2cc(-c3nc([C@H]4CC[C@H](C(=O)O)CC4)n4ncnc(N)c34)[nH]c12 [OSI-027] (partner 0.5 µM); assay: relative viability (nuclei count vs DMSO), 5 days (fraction); higher = more cells survive; conditions: first compound 1 µM
How it was run: (§1)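 The day after seeding in 1536-well plates, lung cancer cell lines were treated by pin tool with a single drug, or with a fixed anchor-drug dose together with five library-drug doses (not always all listed) in √10 steps. After 5 days, a combined fix-and-stain solution (final 0.05% Triton X-100, 1% formaldehyde, 1 ug/ml Hoechst) was added. Nuclei counted on 4× images gave relative viability as treated counts over vehicle counts, reported as the median of duplicate plates.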

Cell Line	relative viability
201T	0.754
NCI-H1915	0.652
HCC-827	0.667
LXF-289	0.804
NCI-H23	0.597
NCI-H647	0.687
CAL-12T	0.38
NCI-H1651	0.9
EPLC-272H	0.264
NCI-H2228	0.279
NCI-H1792	0.842
NCI-H1355	0.424
NCI-H3122	0.4
NCI-H1437	0.897
NCI-H1755	0.638
NCI-H2023	0.195
HCC-15	0.595
PC-14	0.613
EKVX	0.752
LC-2-ad	0.857
NCI-H1563	0.666
NCI-H1944	0.401
NCI-H1975	0.6

compound: CCOC1=CC=CC=C1N=NC2=C(NN(C2=O)C3=NC(=CS3)C4=CC=CC=C4)C [BAM7] + CS(=O)(=O)CCNCc1ccc(-c2ccc3ncnc(Nc4ccc(OCc5cccc(F)c5)c(Cl)c4)c3c2)o1 [Lapatinib] (partner 2 µM); assay: as above; conditions: first compound 0.5 µM
How it was run: as §1

Cell Line	relative viability
LCLC-97TM1	1
NCI-H2009	1.03
A-427	1.01
NCI-H661	0.704
NCI-H1734	1.1
NCI-H460	0.904
NCI-H2347	0.968
SK-LU-1	0.78
201T	1.05
NCI-H1915	1.02
HCC-827	0.205
LXF-289	0.947
NCI-H23	1.48
NCI-H647	1.06
CAL-12T	0.677
NCI-H1651	0.747

Cell Line	relative viability
EPLC-272H	0.879
NCI-H2228	1.31
NCI-H1792	0.963
NCI-H1355	0.972
NCI-H3122	1.09
NCI-H1437	0.686
NCI-H1755	1.06
NCI-H2023	1.05
HCC-15	0.912
PC-14	0.334
EKVX	0.199
LC-2-ad	1.09
NCI-H1563	1.01
NCI-H1944	0.894
NCI-H1975	0.848

same assay, conditions: first compound 5 µM

Cell Line	relative viability
LCLC-97TM1	1.21
NCI-H2009	1.06
A-427	1.09
NCI-H661	0.494
NCI-H1734	1.23
NCI-H460	1.13
NCI-H2347	1.26
SK-LU-1	1.02
201T	1.04
NCI-H1915	1.09
HCC-827	0.2
LXF-289	0.951
NCI-H23	1.1
NCI-H647	0.926
CAL-12T	0.581
NCI-H1651	0.756

Cell Line	relative viability
EPLC-272H	0.924
NCI-H2228	1.19
NCI-H1792	0.914
NCI-H1355	1.01
NCI-H3122	1.04
NCI-H1437	0.514
NCI-H1755	1.13
NCI-H2023	0.751
HCC-15	0.896
PC-14	0.324
EKVX	0.201
LC-2-ad	0.948
NCI-H1563	0.962
NCI-H1944	0.998
NCI-H1975	0.77

same assay, conditions: first compound 15.81 µM

Cell Line	relative viability
LCLC-97TM1	1.04
NCI-H2009	0.898
A-427	1.03
NCI-H661	0.41
NCI-H1734	0.974
NCI-H460	0.953
NCI-H2347	0.899
SK-LU-1	0.846
201T	0.973
NCI-H1915	0.911
HCC-827	0.205
LXF-289	0.913
NCI-H23	0.997
NCI-H647	1.01
CAL-12T	0.599
NCI-H1651	0.831
EPLC-272H	0.94
NCI-H2228	1.05
NCI-H1792	1.09
NCI-H1355	0.986
NCI-H3122	1.04
NCI-H1437	0.51
NCI-H1755	1.04
NCI-H2023	0.737
HCC-15	0.908
PC-14	0.309
EKVX	0.192
LC-2-ad	0.933
NCI-H1563	0.969
NCI-H1944	0.842

same assay, conditions: first compound 50 µM

Cell Line	relative viability
LCLC-97TM1	1.31
NCI-H2009	0.938
A-427	1.09
NCI-H661	0.54
NCI-H1734	1.11
NCI-H460	1.03
NCI-H2347	1.03
SK-LU-1	0.897
201T	1.02
NCI-H1915	1.04
HCC-827	0.202
LXF-289	0.851
NCI-H23	1.26
NCI-H647	1.06
CAL-12T	0.692
NCI-H1651	0.858
